Each compound was assayed on Rattus norvegicus (assay: Antipsychotic activity in albino rat assessed as duration of inhibition of conditioned avoidance behavior at 25 mg/kg administered intramuscularly). Details: route intramuscular.
Format: functional
`CCCCCCC(=O)OCCN1CCN(CCCN2c3ccccc3Sc3ccc(C(F)(F)F)cc32)CC1` [FLUPHENAZINE ENANTHATE] was tested, and the Time was 28 days.
With `CCCCCCCCCC(=O)OCCN1CCN(CCCN2c3ccccc3Sc3ccc(C(F)(F)F)cc32)CC1` [FLUPHENAZINE DECANOATE] the Time was 12 days.
With `CCCCCCCCCCCCCC(=O)OCCN1CCN(CCCN2c3ccccc3Sc3ccc(C(F)(F)F)cc32)CC1.Cl` the Time was 28 days.
`CC(C)CCC(=O)OCCN1CCN(CCCN2c3ccccc3Sc3ccc(C(F)(F)F)cc32)CC1.Cl` showed a Time of 8 days.
For `CCCCCC(=O)OCCN1CCN(CCCN2c3ccccc3Sc3ccc(C(F)(F)F)cc32)CC1.Cl`, the Time was 8 days.
Work on `CCCCCCCCCCCC(=O)OCCN1CCN(CCCN2c3ccccc3Sc3ccc(C(F)(F)F)cc32)CC1.Cl` yielded a Time of 28 days.

Reference: ChEMBL document CHEMBL3244121, “Esters of 4-[3-[2-(trifluoromethyl)phenothiazin-10-yl]propyl]-1-piperazieneethanol and related compounds as long-acting antipsychotic agents. Synthesis of the 1-adamantoate, the first crystalline base” (1977)
